{
  "source": "patent US20060035946A1",
  "about": "“Amyloid-binding, metal-chelating agents” (The General Hospital Corporation, priority 2003, published 2006)",
  "key": {"[1]": {"tested_on": "cortical amyloid accumulation", "conditions": "Tg2576 transgenic mouse model for Alzheimer's disease; R. A. Cherny et al., Neuron 2001; cited from earlier work"}, "Aβ1-40 [2]": {"biological_target": "T1, Aβ1-40 (Homo sapiens, UniProt P05067)", "T1 construct": "Human Aβ peptides (Aβ1-40 and Aβ1-42) were synthesized; purchased W. M. Keck Foundation Biotechnology Resource Laboratory (Yale); Glabe Laboratory (UC Irvine); Multhaup Laboratory (Heidelberg); U.S. Peptide, Inc; Aldrich-Sigma; host or cells: chemical synthesis (solid-phase Fmoc)", "T1 sequence (P05067 672-711 limits assumed)": "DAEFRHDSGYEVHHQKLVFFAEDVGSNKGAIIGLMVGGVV", "assay": "Inhibition of Zn2+-induced aggregation of Aβ measured by turbidity", "format": "biochemical", "conditions": "Aβ1-40 10 μM, Zn2+ 25 μM, compound 25 μM, pH 7.4; FIG. 8", "excerpt": "(§1) Human Aβ peptides (Aβ1-40 and Aβ1-42) were synthesized using solid-phase Fmoc chemistry at the W. M. Keck Foundation Biotechnology Resource Laboratory (Yale University, New Haven, Conn.); Glabe Laboratory (University of California, Irvine, Calif.); or Multhaup Laboratory (University of Heidelberg, Germany); or purchased from U.S. Peptide, Inc. (Rancho Cucamonga, Calif.); or Aldrich-Sigma (St. Louis, Mo.). The syntheses were confirmed by purification by reverse-phase HPLC, amino acid sequencing, and mass spectrometry. Synthetic Aβ peptides were dissolved in trifluoroethanol (30% in Milli-Q water (Millipore Corporation, Milford, Mass.)) or 20 mM HEPES (pH 8.5) at a concentration of […], centrifuged for 20 minutes at 10,000×g and the supernatant (stock Aβ) used for subsequent assays on the day of the experiment.\nTurbidity measurements were performed as previously described (X. Huang et al., J. Biol. Chem. 1997, 272: 26464-26470). […] Subsequently, 20 μL aliquots of 10 mM of the bifunctional molecule to be tested or 10 mM Zn^2+ were added to the mixture alternatively, and following a 2 min. delay, a further four readings were taken at 1 min. intervals. After the final addition of the bifunctional molecule and turbidity reading, the mixtures were incubated for an additional 30 minutes before taking the last readings. […]"}, "Aβ1-40 [3]": {"biological_target": "T1, Aβ1-40", "assay": "MRI signals from spherical phantoms in the presence of Aβ1-40", "format": "binding", "conditions": "PBS pH 7.4, FIG. 11", "excerpt": "as §1\n(§2) Different solution mixtures (containing a contrast imaging agent, Gd-XH1 or Gd-DTPA, in the presence or absence of Aβ1-40, Aβ1-42 or HSA in PBS, pH 7.4) were injected into 4.5-mL hollow spheres (made of polypropylene) and subjected to a 3-T magnetic scanner (Simens). Spin-Echo scanning mode was used and T1 signals were measured for each solution using 12 TR values (TE=5 ms), with R1=1/T1, and R1(obs)=R1(O)+R1 (Gd-XH1-Aβ1-40 or -Aβ1-42)."}, "HSA": {"biological_target": "HSA (Homo sapiens, UniProt P02768)", "sequence (P02768 25-609)": "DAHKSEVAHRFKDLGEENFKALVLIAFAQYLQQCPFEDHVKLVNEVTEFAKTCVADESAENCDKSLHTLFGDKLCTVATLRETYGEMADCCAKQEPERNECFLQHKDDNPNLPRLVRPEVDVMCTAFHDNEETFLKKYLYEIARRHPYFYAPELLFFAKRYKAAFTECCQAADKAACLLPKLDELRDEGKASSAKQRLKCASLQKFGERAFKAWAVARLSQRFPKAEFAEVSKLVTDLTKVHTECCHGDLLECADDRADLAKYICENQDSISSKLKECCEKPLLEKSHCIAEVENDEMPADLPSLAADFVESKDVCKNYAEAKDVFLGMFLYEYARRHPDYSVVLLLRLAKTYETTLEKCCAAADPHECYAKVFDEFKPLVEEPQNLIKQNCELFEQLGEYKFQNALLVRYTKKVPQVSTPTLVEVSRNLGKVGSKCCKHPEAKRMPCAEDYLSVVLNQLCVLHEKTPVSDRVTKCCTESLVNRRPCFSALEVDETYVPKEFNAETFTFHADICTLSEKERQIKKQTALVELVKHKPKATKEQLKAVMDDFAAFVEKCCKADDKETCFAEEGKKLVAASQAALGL", "assay": "MRI signals from spherical phantoms in the presence of HSA", "format": "binding", "conditions": "PBS pH 7.4, FIG. 11", "experimental": "as §2"}, "β-tubulin": {"tested_on": "β-tubulin", "assay": "Control protein expression by SDS-PAGE in SH-SY5Y cells", "format": "cell-based, human", "conditions": "same conditions as APP, FIG. 10A", "experimental": "(§3) In SH-SY5Y human neuroblastoma cells, the capacity of XH1 to suppress APP synthesis was measured by SDS-PAGE. Control proteins (β-tubulin and/or two amyloid-precursor-like proteins, APLP1 and APLP2) were used to ensure target suppression specificity of the inventive bifunctional molecule.\n(§4) SDS-PAGE. SH-SY5Y human neutoblastoma cells were harvested and washed with cold PBS three times and then lysed with M-PER™ mammalian protein extraction reagent (Pierce) mixed with protease inhibitor cocktails (Roche). The cell lysate was […] for 15 minutes at 13,000 rpm in a cold room, and the supernatants were BCA assayed for total protein concentrations. Protein blotting was performed on pre-casted NuPAGE™ 4-12% Bis-Tris Gel (Invitrogen) with equal protein loading (15 μg/well). It was run at 200 V for 45 minutes and transferred at 75 mA/gel for 95 minutes. The blots were probed by primary and secondary antibodies according to manufacturer's instructions and finally washed for 2-3 hours at 15 min. intervals. The blots were then developed using a chemiluminescent kit (Pierce)."}, "[4]": {"tested_on": "E17 rat cortical primary neurons", "assay": "Neurotoxicity in primary neuronal culture (LDH release and MTT assays)", "format": "cell-based", "conditions": "XH1 0, 1 or 10 μM, 48 hours after treatment; FIG. 9A", "excerpt": "A primary neuronal culture was used to test the neurotoxicity of the parent bifunctional molecule, XH1. E17 rat cortical primary neurons were obtained from pathogen-free female Sprague-Dawley rats (purchased from Taconic Farms, Mass.) after 17 days of gestation, as described by G. J. Brewer and C. W. Cotman (in Brain Res. 1989, 494: 65-74). The protocol used allowed long-term culture of neurons at low density under precisely defined culture conditions. This protocol provided up to 90% neuronal culture. It was desirable that a small population of glial cells be co-cultured with the rat cortical primary neurons as these cells support neuronal survival. Cytosine arabinoside (1 μM) was used to control the growth of glial cells in the culture preparation. The neuronal population was checked regularly using neuron-specific enolase (and/or astroglia-specific S100β) immunohistochemistry.\nE17 rat cortical primary neurons were grown under 95% […], 5% CO2, 85% humidity conditions, at 37° C. for 4 days in serum-free Neurobasal™ medium with B-27 supplement (Life Technologies, Inc.), 20 μM L-glutamate, 100 units/mL penicillin, […] streptomycin, and 2 mM L-glutamine. On the 5th day (treatment day), the medium was replaced with serum-free Neurobasal™ medium plus L-glutamine without B-27 supplement. […]"}, "APLP2": {"tested_on": "APLP2", "assay": "Control protein synthesis by SDS-PAGE in SH-SY5Y cells", "format": "cell-based, human", "conditions": "XH1 up to 10 μM, FIG. 10B", "experimental": "as §3, §4"}, "APLP1": {"tested_on": "APLP1", "assay": "Control protein synthesis by SDS-PAGE in SH-SY5Y cells", "format": "cell-based, human", "conditions": "XH1 up to 10 μM, FIG. 10B", "experimental": "as §3, §4"}, "APP": {"tested_on": "APP", "assay": "Determination of APP protein synthesis by SDS-PAGE in SH-SY5Y cells", "format": "cell-based, human", "conditions": "increasing XH1 concentration, 48 hours, FIG. 10A", "experimental": "as §3, §4"}, "[5]": {"tested_on": "human SH-SY5Y neuroblastoma cells", "assay": "Neurotoxicity in neuroblastoma cells (LDH release assay)", "format": "cell-based", "conditions": "XH1 0, 1, 5 or 10 μM, 48 hours after treatment; FIG. 9B", "experimental": "The neurotoxicity of XH1 was also tested on human SH-SY5Y neuroblastoma cells. The SH-SY5Y cell line is commonly used to study neuritogenesis, differentiation, and tumorigenesis (D. Vu et al., Brain Res. Mol. Brain Res. 2003, 115: 93-103). SH-SY5Y cells were obtained from American Type Culture Collection and grown in Dulbecco's modified Eagle's medium supplemented with 10% fetal bovine serum (Gibco-BRL) and antibiotics.\nHuman SH-SY5Y neuroblastoma cells were incubated in the presence of XH1 (0, 1, 5 or 10 μM) (95% […], 5% CO2, 85% humidity, 37° C.) and cell viability was assessed 48 hours after treatment using the LDH release assay as described above."}},
  "data": [
    {"smiles": "Oc1c(I)cc(Cl)c2cccnc12", "note": "[Clioquinol]", "values": [
      {"measurement": "cortical amyloid accumulation", "setting": "[1]", "result": "marked inhibition"}
    ]},
    {"smiles": "O=C(O)CN(CCN(CC(=O)O)CC(=O)O)CCN(CC(=O)O)CC(=O)O", "note": "[DTPA, diethylene triaminepentaacetic acid, reference compound]", "values": [
      {"measurement": "Zn2+-induced aggregation of Aβ1-40 in solution (turbidity at 400 nm)", "setting": "Aβ1-40 [2]", "result": "significantly decrease"}
    ]},
    {"smiles": "O=C([O-])CN(CCN(CC(=O)[O-])CC(=O)O)CCN(CC(=O)[O-])CC(=O)O.[Gd+3]", "note": "[Gd-DTPA]", "values": [
      {"measurement": "effect on MRI signal of combination with Aβ", "setting": "Aβ1-40 [3]", "result": "No effects"},
      {"measurement": "effect on MRI signal of combination with HSA", "setting": "HSA", "result": "No effects"}
    ]},
    {"smiles": "O=C(O)CN(CCN(CC(=O)O)CC(=O)Nc1ccc(-c2nc3ccccc3s2)cc1)CCN(CC(=O)O)CC(=O)Nc1ccc(-c2nc3ccccc3s2)cc1", "note": "[XH1]", "values": [
      {"measurement": "β-tubulin expression", "setting": "β-tubulin", "result": "no effects"},
      {"measurement": "cell death (LDH release and MTT assays)", "setting": "[4]", "result": "does not induce any significant cell death"},
      {"measurement": "APLP2 synthesis", "setting": "APLP2", "result": "did not affect"},
      {"measurement": "APLP1 synthesis", "setting": "APLP1", "result": "did not affect"},
      {"measurement": "APP synthesis", "setting": "APP", "result": "decrease in APP synthesis"},
      {"measurement": "cell death (LDH release assay)", "setting": "[5]", "result": "does not cause any significant cell death"},
      {"measurement": "Zn2+-induced aggregation of Aβ1-40 in solution (turbidity at 400 nm)", "setting": "Aβ1-40 [2]", "result": "significantly decrease"}
    ]}
  ]
}
